Data set [1] can be described thus: Toxicity against C57BL/6J mouse assessed as body weight at 200 mg/kg twice a day measured after 60 days. Conditions: in vivo, 1440 h, time 60 day. In kind it is organism-based.
The test system of data set [2] is Mus musculus. Kind of data set: Antithrombotic activity in transient focal cerebral ischemic mouse model occlusion induced 60 mins of the right middle cerebral artery followed by reperfussion 23 hrs assessed as decrease in mortality rate at 200 mg/kg, po twice daily for 7 days […]. In kind it is functional, organism-based. To be noted: time 7.0 day.

A short description of data set [3]: Inhibition of thrombin-stimulated human platelet aggregation by measuring aggregation at 0.10 mM measured after 3 hrs by scanning electron microscopy (Rvb= 87.2 +/- 4.0%). Conditions: dose 0.1 mM. The class given is functional. Also noted: scale not given: the % may be the effect or the level left.
Data set [4] is described as follows: Toxicity in C57BL/6J mouse assessed as change in chloride level at 200 mg/kg twice daily for 60 days relative to control. In kind it is organism-based. Conditions: in vivo, 1440 h, time 60 day.
Data set [5] is described as follows: Inhibition of thrombin-stimulated human platelet aggregation by measuring aggregation at 0.50 mM measured after 3 hrs by scanning electron microscopy. Conditions: dose 0.5 mM. The class given is functional. Also noted: scale not given: the % may be the effect or the level left.
Data set [6] has as its system Mus musculus. Kind of data set: Antithrombotic activity in calcein-labelled platelet-mediated ferric chloride-induced arterial injury thrombosis C57BL/6J mouse model assessed as average time to occlusive thrombosis at 200 mg/kg, po administrated twice a day measured upto 7 days (reference value: 7.9 +/- 0.7 min). In kind it is functional. To be noted: time day <=7.

Data set [7] in a line: Toxicity in C57BL/6J mouse assessed as change in creatinine level at 200 mg/kg twice daily for 60 days relative to control. The class given is organism-based. Conditions: in vivo, 1440 h, time 60 day.
Data set [8] has as its system Mus musculus. As to the kind of experiment: Antithrombotic activity in calcein-labelled platelet-mediated ferric chloride-induced arterial injury thrombosis C57BL/6J mouse model assessed as average time to occlusive thrombosis at 50 mg/kg, po administrated twice a day measured upto 7 days (reference value: 7.9 +/- 0.7 min). Conditions: time day <=7. The class given is functional.

For data set [9], the system named is Mus musculus. Kind of data set: Antithrombotic activity in calcein-labelled platelet-mediated ferric chloride-induced arterial injury thrombosis C57BL/6J mouse model assessed as thrombus weight at 50 mg/kg, po administrated twice a day measured upto 7 days (reference value: 3.3 +/- 0.3 mg). In kind it is functional. To be noted: time day <=7.
The nature of data set [10]: Suppression of glycoprotein IIb/IIIa activation in thrombin-stimulated human platelets by measuring activated GPIIb/IIIa at 0.01 mM measured after 3 hrs by PAC-1-FITC dye based flow cytometry (reference value: 90.1%). In kind it is functional. Conditions: Platelet. (In general: In flow cytometry, cells or beads pass a laser one at a time.)

Calls of active or inactive are those of the source. The calls are words filed in the database; no cut-off is given here.

`CN(C)C(=N)NC(=N)NS(=O)(=O)C(F)(F)F`: the Activity result in [1] is “Non-Toxic”; in data set [3], 44.2%; in data set [4], “Non-Toxic”; in data set [5] it was 21%; in data set [7], “Non-Toxic”; in the data set on Mus musculus [9], 2.7 mg. Besides, the result with Mus musculus [2] was Active. Further, the Time was 21.2 min with Mus musculus [6] and 10.1 min with Mus musculus [8]. The same compound came in with a level, % of control at 10 µM in data set [10] of 84.2%.
